{"source": "patent US20110110979A1", "about": "“METHOD AND VACCINE FOR […] SPECIFIC IMMUNE RESPONSES” (Universite De Lausanne, priority 2008, published 2011)", "key": {"[1]": {"biological_target": "HPV16 E749-57 peptide presented by H-2D^b (human papillomavirus type 16; mouse (C57BL/6)) (UniProt P01899)"}, "[2]": {"biological_target": "HPV16 E749-57 peptide presented by H-2D^b (human papillomavirus type 16; mouse (C57BL/6)) (UniProt P01899)", "remark": "listed apart in the source"}, "[3]": {"system": "E749-57-specific CD8 T cells", "assay": "ex vivo IFN-γ ELISPOT after E7 vaccination followed by ivag immunostimulant", "assay_type": "in vivo, C57BL/6 mice", "details": "sc E71-98+CpG and HLT day 1; ivag immunostimulant day 6; analysis day 9"}, "E7-specific CD8 cells": {"system": "E7-specific CD8 cells", "details": "single dose HSp E7+poly IC followed by three consecutive daily doses of Poly IC alone; cited from earlier work"}, "[4]": {"system": "E749-57-specific CD8 T cells", "assay": "ex vivo IFN-γ ELISPOT after sc or i.n. immunization with E71-98 + adjuvants", "assay_type": "in vivo, C57BL/6 mice", "details": "single 50 μg sc or i.n. dose, no adjuvant; 7 days after immunization"}}, "data": [{"substance": "E7-specific CD8 T cells from C57BL/6 mice vaccinated with E71-98 + adjuvants (PBMC, spleen, lymph no (cells without a defined receptor)", "values": [{"measurement": "ex vivo IFN-γ ELISPOT (E7-specific IFN-γ secreting cells/10^5 cells)", "setting": "[1]", "value": 347}, {"measurement": "in vivo cytotoxicity assay (specific lysis of CFSE-labeled peptide-pulsed splenocytes)", "setting": "[2]", "value": 80, "unit": "%"}]}, {"substance": "polyriboinosinic:polyribocytidylic acid [pI:C]", "values": [{"measurement": "E7-specific CD8 T cell responses in CV tissue vs ivag PBS", "setting": "[3]", "value": "strongly enhanced"}, {"measurement": "numbers of E7-specific CD8 cells vs single dose of HspE7+poly IC", "setting": "E7-specific CD8 cells", "value": "did not elicit a significant increase"}]}, {"substance": "E71-98: complete synthetic E7 polypeptide (residues 1-98) of human papillomavirus type 16", "values": [{"measurement": "E7-specific CD8 T cell responses in PBMC", "setting": "[4]", "value": "did not induce detectable E7-specific CD8 T cell responses"}]}]}
